# Assays:
# crabgrass, large [1] = test: Test A preemergence; type: in vivo, Digitaria sanguinalis; conditions: 0 to 100 scale
# Text: (§1) Seeds of plant species selected from barnyardgrass (Echinochloa crus-galli), kochia (Kochia scoparia), common ragweed (Ambrosia elation), Italian ryegrass (Lolium multiflorum), crabgrass, large (large crabgrass, Digitaria sanguinalis), foxtail, giant (giant foxtail, Setaria faberii), morningglory (Ipomoea spp.), pigweed (redroot pigweed, Amaranthus retroflexus), velvetleaf (Abutilon theophrasti), wheat (Triticum aestivum), and corn (Zea mays) were planted into a blend of loam soil and sand and treated preemergence with a directed soil spray using test chemicals formulated in a non-phytotoxic solvent mixture which included a surfactant.
# (§2) At the same time, plants selected from these crop and weed species and also blackgrass (Alopecurus myosuroides), and galium (catchweed bedstraw, Galium aparine) were planted in pots containing the same blend of loam soil and sand and treated with postemergence applications of test chemicals formulated in the same manner. Plants ranged in height from 2 to 10 cm and were in the one- to two-leaf stage for the postemergence treatment. Treated plants and untreated controls were maintained in a greenhouse for approximately 10 days, after which time all treated plants were compared to untreated controls and visually evaluated for injury. Plant response ratings, summarized in Table A, are based on a 0 to 100 scale where 0 is no effect and 100 is complete control. A dash (-) response means no test result.
# crabgrass, large [2] = test: Test A postemergence; type: in vivo, Digitaria sanguinalis
# Text: as §1, §2
# velvetleaf [3] = test: Test A preemergence; type: in vivo, Abutilon theophrasti; conditions: 0 to 100 scale
# Text: as §1, §2
# morningglory [4] = test: Test A preemergence; type: in vivo, Ipomoea spp.; conditions: 0 to 100 scale
# Text: as §1, §2
# pigweed [5] = test: Test A preemergence; type: in vivo, Amaranthus retroflexus; conditions: 0 to 100 scale
# Text: as §1, §2
# morningglory [6] = test: Test A postemergence; type: in vivo, Ipomoea spp.
# Text: as §1, §2
# corn [7] = test: Test A preemergence; type: in vivo, Zea mays; conditions: 0 to 100 scale
# Text: as §1, §2
# wheat [8] = test: Test A postemergence; type: in vivo, Triticum aestivum
# Text: as §1, §2
# foxtail, giant [9] = test: Test A preemergence; type: in vivo, Setaria faberii; conditions: 0 to 100 scale
# Text: as §1, §2
# velvetleaf [10] = test: Test A postemergence; type: in vivo, Abutilon theophrasti
# Text: as §1, §2
# foxtail, giant [11] = test: Test A postemergence; type: in vivo, Setaria faberii
# Text: as §1, §2
# wheat [12] = test: Test A preemergence; type: in vivo, Triticum aestivum; conditions: 0 to 100 scale
# Text: as §1, §2
# barnyardgrass [13] = test: Test A postemergence; type: in vivo, Echinochloa crus-galli; conditions: Postemergence
# Text: as §1, §2
# corn [14] = test: Test A postemergence; type: in vivo, Zea mays
# Text: as §1, §2
# pigweed [15] = test: Test A postemergence; type: in vivo, Amaranthus retroflexus
# Text: as §1, §2
# barnyardgrass [16] = test: Test A preemergence; type: in vivo, Echinochloa crus-galli; conditions: 0 to 100 scale
# Text: as §1, §2
# [17] = Preemergence, 500 g ai/ha, 0 no effect, 100 complete control
# [18] = preemergence, 125 g ai/ha, visual injury, approx. 10 days
# [19] = Postemergence, 500 g ai/ha, visual rating after approx. 10 days, 0 to 100 scale (0 no effect, 100 complete control)
# [20] = postemergence, 125 g ai/ha, about 10 days, visual rating on 0 to 100 scale (0 no effect, 100 complete control)
# [21] = 125 g ai/ha, 0 to 100 scale, 0 no effect, 100 complete control
# [22] = 500 g ai/ha, visual rating after approx. 10 days, 0 to 100 scale (0 no effect, 100 complete control)
# [23] = Preemergence, 1000 g ai/ha, 0 no effect, 100 complete control
# [24] = Postemergence, 1000 g ai/ha, visual rating after approx. 10 days, 0 to 100 scale (0 no effect, 100 complete control)
# [25] = 1000 g ai/ha, visual rating after approx. 10 days, 0 to 100 scale (0 no effect, 100 complete control)
# [26] = Postemergence, 125 g ai/ha, 0 to 100 scale, 0 no effect, 100 complete control
SMILES,"Crabgrass, Large plant response rating (crabgrass, large [2]; [19])","Crabgrass, Large plant response rating (crabgrass, large [2]; [20])",Velvetleaf plant response rating (velvetleaf [3]; [17]),Morningglory plant response rating (morningglory [4]; [17]),Morningglory plant response rating (morningglory [4]; [18]),Pigweed plant response rating (pigweed [5]; [17]),Morningglory plant response rating (morningglory [6]; [19]),Morningglory plant response rating (morningglory [6]; [20]),Corn plant response rating (corn [7]; [18]),Wheat plant response rating (wheat [8]; [19]),Wheat plant response rating (wheat [8]; [20]),"Foxtail, Giant plant response rating (foxtail, giant [9]; [17])",Velvetleaf plant response rating (velvetleaf [10]; [19]),"Foxtail, Giant plant response rating (foxtail, giant [11]; [19])","Foxtail, Giant plant response rating (foxtail, giant [11]; [20])",Wheat plant response rating (wheat [12]; [18]),Barnyardgrass plant response rating (barnyardgrass [13]; [21]),Barnyardgrass plant response rating (barnyardgrass [13]; [22]),Corn plant response rating (corn [14]; [19]),Corn plant response rating (corn [14]; [20]),further results
Cc1cc(C(=O)NCC(F)(F)C(F)(F)F)nn1Cc1cccc(C(F)(F)F)c1 [Compound 8],20,10,0,0,0,10,100,80,0,0,0,0,10,20,10,0,0,10,0,0,"Crabgrass, Large plant response rating (crabgrass, large [1]; [17]): 0; Crabgrass, Large plant response rating (crabgrass, large [1]; [18]): 0; Velvetleaf plant response rating (velvetleaf [3]; [18]): 0; Pigweed plant response rating (pigweed [5]; [18]): 0; Corn plant response rating (corn [7]; [17]): 0; Foxtail, Giant plant response rating (foxtail, giant [9]; [18]): 0; Pigweed plant response rating (pigweed [15]; [19]): 40; Pigweed plant response rating (pigweed [15]; [20]): 10; Barnyardgrass plant response rating (barnyardgrass [16]; [17]): 0; Barnyardgrass plant response rating (barnyardgrass [16]; [18]): 0"
Cc1cc(C(=O)NC2CC2)nn1Cc1ccc(F)c(C(F)(F)F)c1 [Compound 11],40,20,20,30,10,100,80,70,0,0,0,60,40,30,10,0,0,10,20,0,"Crabgrass, Large plant response rating (crabgrass, large [1]; [17]): 90; Crabgrass, Large plant response rating (crabgrass, large [1]; [18]): 60; Velvetleaf plant response rating (velvetleaf [3]; [18]): 0; Pigweed plant response rating (pigweed [5]; [18]): 60; Corn plant response rating (corn [7]; [17]): 0; Foxtail, Giant plant response rating (foxtail, giant [9]; [18]): 20; Velvetleaf plant response rating (velvetleaf [10]; [20]): 30; Pigweed plant response rating (pigweed [15]; [19]): 100; Pigweed plant response rating (pigweed [15]; [20]): 60; Barnyardgrass plant response rating (barnyardgrass [16]; [17]): 50; Barnyardgrass plant response rating (barnyardgrass [16]; [18]): 10"
Cc1cc(C(=O)NCC(F)(F)F)nn1Cc1ccc(F)c(C(F)(F)F)c1 [Compound 12],50,30,0,10,0,100,90,50,0,0,0,60,50,30,20,0,10,20,20,10,"Crabgrass, Large plant response rating (crabgrass, large [1]; [17]): 60; Crabgrass, Large plant response rating (crabgrass, large [1]; [18]): 40; Velvetleaf plant response rating (velvetleaf [3]; [18]): 0; Pigweed plant response rating (pigweed [5]; [18]): 70; Corn plant response rating (corn [7]; [17]): 0; Foxtail, Giant plant response rating (foxtail, giant [9]; [18]): 10; Velvetleaf plant response rating (velvetleaf [10]; [20]): 40; Pigweed plant response rating (pigweed [15]; [19]): 100; Pigweed plant response rating (pigweed [15]; [20]): 80; Barnyardgrass plant response rating (barnyardgrass [16]; [17]): 30; Barnyardgrass plant response rating (barnyardgrass [16]; [18]): 0"
Cc1cc(C(=O)NC2CC2)nn1Cc1cc(F)cc(C(F)(F)F)c1 [Compound 14],40,20,0,20,0,100,80,50,0,0,0,90,30,20,0,0,0,10,10,0,"Crabgrass, Large plant response rating (crabgrass, large [1]; [17]): 90; Crabgrass, Large plant response rating (crabgrass, large [1]; [18]): 10; Velvetleaf plant response rating (velvetleaf [3]; [18]): 0; Pigweed plant response rating (pigweed [5]; [18]): 100; Corn plant response rating (corn [7]; [17]): 0; Foxtail, Giant plant response rating (foxtail, giant [9]; [18]): 10; Velvetleaf plant response rating (velvetleaf [10]; [20]): 20; Pigweed plant response rating (pigweed [15]; [19]): 70; Pigweed plant response rating (pigweed [15]; [20]): 50; Barnyardgrass plant response rating (barnyardgrass [16]; [17]): 10; Barnyardgrass plant response rating (barnyardgrass [16]; [18]): 0"
CCNC(=O)c1cc(CC)n(Cc2cccc(C(F)(F)F)c2)n1 [Compound 17],–,–,–,–,–,–,–,–,–,–,–,–,–,–,–,–,–,–,–,–,"Crabgrass, Large plant response rating (crabgrass, large [1]; [23]): 100; Crabgrass, Large plant response rating (crabgrass, large [2]; [24]): 90; Velvetleaf plant response rating (velvetleaf [3]; [23]): 100; Morningglory plant response rating (morningglory [4]; [23]): 80; Pigweed plant response rating (pigweed [5]; [23]): 100; Morningglory plant response rating (morningglory [6]; [24]): 100; Corn plant response rating (corn [7]; [23]): 10; Wheat plant response rating (wheat [8]; [24]): 30; Foxtail, Giant plant response rating (foxtail, giant [9]; [23]): 100; Velvetleaf plant response rating (velvetleaf [10]; [24]): 100; Foxtail, Giant plant response rating (foxtail, giant [11]; [24]): 90; Wheat plant response rating (wheat [12]; [23]): 20; Barnyardgrass plant response rating (barnyardgrass [13]; [25]): 40; Corn plant response rating (corn [14]; [24]): 40; Pigweed plant response rating (pigweed [15]; [24]): 90; Barnyardgrass plant response rating (barnyardgrass [16]; [23]): 80"
Cc1cc(C(=O)NC2CC2)nn1Cc1cccc(OC(F)(F)F)c1 [Compound 21],80,30,50,40,0,100,90,80,0,10,0,100,40,50,20,0,0,60,50,10,Velvetleaf plant response rating (velvetleaf [10]; [20]): 0; Pigweed plant response rating (pigweed [15]; [19]): 100; Pigweed plant response rating (pigweed [15]; [20]): 90; Barnyardgrass plant response rating (barnyardgrass [16]; [17]): 90; Barnyardgrass plant response rating (barnyardgrass [16]; [18]): 0
CCc1cc(C(=O)NCCC(F)(F)F)nn1Cc1cccc(C(F)(F)F)c1 [Compound 51],–,–,–,–,–,–,–,–,–,–,–,–,–,–,–,–,–,–,–,–,"Crabgrass, Large plant response rating (crabgrass, large [1]; [23]): 20; Crabgrass, Large plant response rating (crabgrass, large [2]; [24]): 30; Velvetleaf plant response rating (velvetleaf [3]; [23]): 0; Morningglory plant response rating (morningglory [4]; [23]): 10; Pigweed plant response rating (pigweed [5]; [23]): 10; Morningglory plant response rating (morningglory [6]; [24]): 100; Wheat plant response rating (wheat [8]; [24]): 20; Foxtail, Giant plant response rating (foxtail, giant [9]; [23]): 80; Velvetleaf plant response rating (velvetleaf [10]; [24]): 100; Foxtail, Giant plant response rating (foxtail, giant [11]; [24]): 10; Wheat plant response rating (wheat [12]; [23]): 0; Barnyardgrass plant response rating (barnyardgrass [13]; [25]): 10; Corn plant response rating (corn [14]; [24]): 10; Pigweed plant response rating (pigweed [15]; [24]): 50; Barnyardgrass plant response rating (barnyardgrass [16]; [23]): 10"
O=C(NCC(F)(F)F)c1cc(CCCl)n(Cc2ccnc(C(F)(F)F)c2)n1 [Compound 193],–,–,–,–,–,–,–,–,–,–,–,–,–,–,–,–,–,–,–,–,Morningglory plant response rating (morningglory [6]; [26]): 80; Wheat plant response rating (wheat [8]; [26]): 0; Velvetleaf plant response rating (velvetleaf [10]; [26]): 70; Pigweed plant response rating (pigweed [15]; [26]): 100

# — patent US20150105252A1, “SUBSTITUTED PYRAZOLES AS HERBICIDES” (E I DU PONT DE NEMOURS AND COMPANY, priority 2013, published 2015)
